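These data come from cells grown in 96-well plates and exposed to compound for 48 hours at five concentrations. Abbreviation: GI50, concentration required for 50% inhibition of growth.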 Calls of active or inactive are those of the source. Rule as the data show it: active = GI50 up to about 1.1 µM and inactive = higher.
Assays:
Test in all cases: NCI anticancer screen, dose series, 48 h
[1] = test system: 786-0
[2] = test system: A498
[3] = test system: A549
[4] = test system: ACHN
[5] = test system: CAKI-1
[6] = test system: CCRF-CEM
[7] = test system: COLO 205
[8] = test system: DU-145
[9] = test system: EKVX
[10] = test system: HCC 2998
[11] = test system: HCT-116
[12] = test system: HL-60
[13] = test system: HOP-62
[14] = test system: HOP-92
[15] = test system: HT-29
[16] = test system: Hs-578T
[17] = test system: IGROV-1
[18] = test system: K562
[19] = test system: KM12
[20] = test system: LOX IMVI
[21] = test system: M14
[22] = test system: MCF7
[23] = test system: MDA-MB-231
[24] = test system: MDA-MB-435
[25] = test system: MDA-N
[26] = test system: MOLT-4
[27] = test system: Malme-3M
[28] = test system: NCI-H226
[29] = test system: NCI-H23
[30] = test system: NCI-H460
[31] = test system: NCI-H522
[32] = test system: NCI/ADR-RES
[33] = test system: OVCAR-3
[34] = test system: OVCAR-4
[35] = test system: OVCAR-5
[36] = test system: OVCAR-8
[37] = test system: PC-3
[38] = test system: RPMI-8226
[39] = test system: RXF 393
[40] = test system: SF-268
[41] = test system: SF-295
[42] = test system: SF-539
[43] = test system: SK-MEL-28
[44] = test system: SK-MEL-2
[45] = test system: SK-MEL-5
[46] = test system: SK-OV-3
[47] = test system: SN12C
[48] = test system: SNB-19
[49] = test system: SNB-75
[50] = test system: SW-620
[51] = test system: T47D
[52] = test system: TK-10
[53] = test system: U-251
[54] = test system: UACC-257
[55] = test system: UACC-62
[56] = test system: UO-31
[57] = test system: BT-549
[58] = test system: HCT-15
[59] = test system: SR

Measured: GI50

Oc1ccc(Cl)cc1CN1CCN(Cc2cc(Cl)ccc2O)C1
active: [1] 0.203 µM | [4] 0.465 µM | [6] 0.0603 µM | [10] 1.03 µM | [11] 0.234 µM | [13] 0.617 µM | [19] 1.08 µM | [20] 0.489 µM | [21] 0.553 µM | [23] 0.403 µM | [26] 0.174 µM | [30] 0.218 µM | [32] 0.152 µM | [33] 0.367 µM | [36] 0.525 µM | [37] 0.206 µM | [39] 0.895 µM | [40] 1.09 µM | [41] 0.682 µM | [42] 0.946 µM | [45] 0.973 µM | [47] 1.11 µM | [50] 0.547 µM | [53] 1.11 µM | [56] 0.536 µM
inactive: [2] 16 µM | [3] 1.75 µM | [5] 1.88 µM | [7] 1.45 µM | [8] 1.92 µM | [9] 1.57 µM | [12] 2.02 µM | [14] 1.15 µM | [15] 1.87 µM | [16] 3.82 µM | [17] 1.89 µM | [18] 1.39 µM | [22] 10.5 µM | [24] 1.33 µM | [25] 1.79 µM | [27] 2.17 µM | [28] 1.39 µM | [29] 1.19 µM | [31] 3.31 µM | [34] 1.3 µM | [35] 5.09 µM | [38] 2.27 µM | [43] 1.65 µM | [44] 1.73 µM | [46] 2.3 µM | [48] 2.86 µM | [49] 1.52 µM | [51] 1.84 µM | [52] 1.55 µM | [54] 1.86 µM | [55] 1.85 µM

N#CC(C#N)/N=N/c1ccc(-c2nc3ccccc3s2)cc1
3.59 µM: [58]
inactive: [1] 8.36 µM | [2] 11.1 µM | [4] 3.68 µM | [57] 5.19 µM | [5] 2.81 µM | [7] 4.04 µM | [8] 5.79 µM | [9] 7.03 µM | [11] 3.78 µM | [14] 1.48 µM | [15] 6.64 µM | [17] 6 µM | [20] 7 µM | [21] 8.73 µM | [22] 4.53 µM | [24] 5.6 µM | [25] 4.93 µM | [26] 1.33 µM | [27] 3.15 µM | [29] 2.93 µM | [31] 2.65 µM | [32] 3.54 µM | [34] 6.49 µM | [35] 28 µM | [36] 4.37 µM | [37] 2.8 µM | [38] 1.51 µM | [39] 4.23 µM | [42] 9.33 µM | [43] 10.4 µM | [44] 4.73 µM | [45] 2.74 µM | [47] 2.78 µM | [49] 25.9 µM | [59] 3.23 µM | [50] 4.79 µM | [51] 2.22 µM | [52] 3.98 µM | [54] 3.1 µM | [56] 7.46 µM

CCCCCCCCCN1CCC(=O)C(C(=O)OC)C1 (stereo not drawn)
inactive: [1] 16.9 µM | [2] 19 µM | [3] 16.6 µM | [4] 8.93 µM | [5] 15.6 µM | [6] 10.1 µM | [7] 15.1 µM | [8] 15.1 µM | [9] 15.5 µM | [10] 19.5 µM | [11] 13.9 µM | [12] 1.53 µM | [13] 16.9 µM | [14] 17.7 µM | [15] 10.1 µM | [16] 17.1 µM | [19] 3.08 µM | [20] 12.5 µM | [21] 15.4 µM | [22] 12.3 µM | [24] 14.7 µM | [25] 16 µM | [26] 13.6 µM | [28] 12.9 µM | [29] 2.96 µM | [30] 17.6 µM | [31] 8.73 µM | [32] 13.6 µM | [33] 15.5 µM | [34] 2.29 µM | [35] 15.3 µM | [36] 8.07 µM | [38] 15.6 µM | [39] 17.1 µM | [40] 16.3 µM | [41] 17.3 µM | [42] 18.2 µM | [45] 14.2 µM | [46] 16.4 µM | [47] 16 µM | [49] 17.9 µM | [59] 3.86 µM | [50] 11.9 µM | [51] 10.4 µM | [52] 16.7 µM | [54] 11 µM | [55] 12.2 µM | [56] 10.3 µM
13.4 µM: [58]

O=C1CCc2cc3c(cc21)CC1(Cc2ccccc2C1)C3
active: [5] 0.703 µM | [26] 0.678 µM
inactive: [1] 36.3 µM | [2] 12.2 µM | [3] 12 µM | [4] 19.8 µM | [6] 2.98 µM | [7] 3.79 µM | [8] 20.8 µM | [9] > 27.3 µM | [10] 8.75 µM | [11] 4.08 µM | [12] 2.43 µM | [13] 9.73 µM | [14] 6.32 µM | [15] 3.14 µM | [16] 52.1 µM | [17] 4.3 µM | [18] 2.09 µM | [19] > 22.4 µM | [20] 8.02 µM | [21] 14.9 µM | [22] 9.29 µM | [23] 12 µM | [24] 2.58 µM | [25] 2.16 µM | [27] 16.8 µM | [28] 12.9 µM | [29] 26.9 µM | [30] 6.31 µM | [31] 9.14 µM | [32] 7.31 µM | [33] 8.75 µM | [34] 50.1 µM | [35] 16.3 µM | [36] 24.9 µM | [37] 14.2 µM | [38] 6.27 µM | [39] 33 µM | [40] 37.8 µM | [41] 6.43 µM | [42] 9.12 µM | [43] 10.3 µM | [44] 2.11 µM | [45] 5.77 µM | [46] 14 µM | [47] 19.9 µM | [48] 27.2 µM | [49] 15.7 µM | [59] 1.86 µM | [50] 4.34 µM | [51] 20.2 µM | [52] 30.3 µM | [53] 7.96 µM | [54] 19.6 µM | [55] 21.1 µM | [56] 4.02 µM
13.8 µM: [58]

C1=C(c2ccccc2)O[C@H](COCc2ccccc2)C(OCc2ccccc2)[C@@H]1OCc1ccccc1 (stereo partly drawn)
inactive: [1] > 10 µM | [3] > 10 µM | [5] > 10 µM | [6] > 10 µM | [7] > 10 µM | [8] > 10 µM | [9] > 10 µM | [10] > 10 µM | [12] > 10 µM | [13] > 10 µM | [15] > 10 µM | [17] > 10 µM | [18] > 10 µM | [19] > 10 µM | [21] > 10 µM | [22] > 10 µM | [23] > 10 µM | [25] > 10 µM | [26] > 10 µM | [27] > 10 µM | [29] > 10 µM | [36] > 10 µM | [37] > 10 µM | [38] > 10 µM | [39] > 10 µM | [40] > 10 µM | [41] > 10 µM | [43] > 10 µM | [45] > 10 µM | [46] > 10 µM | [47] > 10 µM | [49] > 10 µM | [59] > 10 µM | [50] > 10 µM | [51] > 10 µM | [52] > 10 µM | [54] > 10 µM | [55] > 10 µM
> 10 µM: [58]

CC1(C)[C@@H](Cn2ccc(=O)[nH]c2=O)CC[C@@]1(C)CO
inactive: [1] > 100 µM | [2] > 100 µM | [3] > 100 µM | [4] > 100 µM | [5] > 100 µM | [6] > 100 µM | [7] > 100 µM | [8] > 100 µM | [9] > 100 µM | [10] > 100 µM | [11] > 100 µM | [13] > 100 µM | [14] > 100 µM | [16] > 100 µM | [18] > 100 µM | [19] > 100 µM | [20] > 100 µM | [21] > 100 µM | [23] > 100 µM | [24] > 100 µM | [25] > 100 µM | [28] > 100 µM | [32] > 100 µM | [33] 81.5 µM | [34] > 100 µM | [35] > 100 µM | [37] > 100 µM | [39] 59.2 µM | [40] > 100 µM | [41] > 100 µM | [43] > 100 µM | [44] > 100 µM | [45] > 100 µM | [46] > 100 µM | [47] > 100 µM | [48] > 100 µM | [49] > 100 µM | [50] > 100 µM | [51] > 100 µM | [52] > 100 µM | [53] > 100 µM | [54] > 100 µM | [55] > 100 µM | [56] > 100 µM
> 100 µM: [58]

— ChEMBL document CHEMBL1201862, “PubChem BioAssay data set” (2004)
